Experimental data taken from paper PMC12133982, “Predominant T-cell epitopes of SARS-CoV-2 restricted by multiple prevalent HLA-B and HLA-C allotypes in Northeast Asia” (Frontiers in Immunology, 2025).
Peptide text beside a SMILES is read from it.

Legend:
HLA-C0303 = HLA-C0303 (Homo sapiens, UniProt P10321, A176E/A330V/A97T/C25G/C350S/D114A/D33Y/E197K/G115R/L119I/L127V/L171W/L218V/M285V/M309V/M331V/P208H/Q277E/Q291P/R243W/R45H/S123Y/S140Y/S297R/S48A/T118I/T187L/T329A/T363A/V319A); experiment: Competitive peptide binding assay, CIR-C0303; details: HMy2.CIR-C0303 cells, reference Cy5-[…], class from inhibition at 5 and 15 μM, flow cytometry MFI; read-out: Binding affinity with HLA-C0303
Experimental: (§1) Then, competitive peptide binding assays were performed.

HLA-C0302 = HLA-C0302 (Homo sapiens, UniProt P10321, A176E/A330V/A97T/C25G/C350S/D114A/D33Y/E197K/L127V/L171W/L218V/M285V/M309V/M331V/P208H/Q277E/Q291P/R243W/R45H/S123Y/S297R/S48A/T118I/T187L/T329A/T363A/V319A); experiment: Competitive peptide binding assay, CIR-C0302; details: HMy2.CIR-C0302 cells, reference Cy5-[…], class from inhibition at 5 and 15 μM, flow cytometry MFI; read-out: Binding affinity with HLA-C0302
Experimental: as §1

HLA-C0801 = HLA-C0801 (Homo sapiens, UniProt P10321, A176T/A330V/A97T/C350S/D114A/D138N/D33Y/E201K/E299G/L171W/L218V/M285V/M309V/M331V/P208H/Q277E/Q291P/R59Q/S123Y/S140F/S297R/S48A/T329A/T363A/V319A/V328M); experiment: Competitive peptide binding assay, CIR-C0801; details: HMy2.CIR-C0801 cells, reference Cy5-[…], class from inhibition at 5 and 15 μM, flow cytometry MFI; read-out: Binding affinity with HLA-C0801
Experimental: as §1

HLA-C0102 = HLA-C0102 (Homo sapiens, UniProt P10321, A176E/A330V/A35S/A97T/C350S/D114A/D33F/L171W/L180R/L218V/M285V/M309V/M331V/P208H/Q277E/Q291P/R121W/R243W/R30K/S123C/S140Y/S297R/T329A/T363A/V272M/V319A); experiment: Competitive peptide binding assay, CIR-C0102; details: HMy2.CIR-C0102 cells, reference Cy5-[…], class from inhibition at 5 and 15 μM, flow cytometry MFI; read-out: Binding affinity with HLA-C0102
Experimental: as §1

HLA-C0602 = HLA-C0602 (Homo sapiens, UniProt P10321, A176E/A330V/C350S/L171W/L180W/L218V/M285V/M309V/M331V/N104K/P208H/Q277E/Q291P/R121W/S101N/S123Y/S297R/T329A/T363A/V319A/V328M); experiment: Competitive peptide binding assay, CIR-C0602
HLA-C0701 = HLA-C0701 (Homo sapiens, UniProt P10321, K90N/S123Y); experiment: Competitive peptide binding assay, CIR-C0701; details: HMy2.CIR-C0701 cells, reference Cy5-[…], class from inhibition at 5 and 15 μM, flow cytometry MFI; read-out: Binding affinity with HLA-C 0701
Experimental: as §1

HLA-C0304 = HLA-C0304 (Homo sapiens, UniProt P10321, A176E/A330V/A97T/C25G/C350S/D114A/D33Y/E197K/L119I/L127V/L171W/L218V/M285V/M309V/M331V/P208H/Q277E/Q291P/R243W/R45H/S123Y/S140Y/S297R/S48A/T118I/T187L/T329A/T363A/V319A); experiment: Competitive peptide binding assay, CIR-C0304; details: HMy2.CIR-C0304 cells, reference Cy5-[…], class from inhibition at 5 and 15 μM, flow cytometry MFI; read-out: Binding affinity with HLA-C0304
Experimental: as §1

HLA-C0702 = HLA-C0702 (Homo sapiens, UniProt P10321); experiment: Competitive peptide binding assay, CIR-C0702
HLA-C1502 = HLA-C1502 (Homo sapiens, UniProt P10321, A176E/A330V/A97T/C350S/D114A/D33Y/K90N/L119I/L171W/L218V/M285V/M309V/M331V/N104K/P208H/Q277E/Q291P/R45H/S101N/S123Y/S140L/S297R/S48A/T118I/T329A/T363A/V319A/V328M/Y137H); experiment: Competitive peptide binding assay, CIR-C1502; details: HMy2.CIR-C1502 cells, reference Cy5-[…], class from inhibition at 5 and 15 μM, flow cytometry MFI; read-out: Binding affinity with HLA-C1502
Experimental: as §1

HLA-C0401 = HLA-C0401 (Homo sapiens, UniProt P10321, A176E/A330V/A35S/A73E/C25G/C350S/D138N/D33S/E299K/L171W/L180R/L218V/M285V/M309V/M331V/N104K/P208H/Q277E/Q291P/R243W/R38W/S101N/S123F/S140F/S297R/S48A/T329A/T363A/V319A/V327M); experiment: Competitive peptide binding assay, CIR-C0401; details: HMy2.CIR-C0401 cells, reference Cy5-[…], class from inhibition at 5 and 15 μM, flow cytometry MFI; read-out: Binding affinity with HLA-C0401
Experimental: as §1

HLA-C1202 = HLA-C1202 (Homo sapiens, UniProt P10321, A176E/A330V/C350S/D114A/D33Y/L171W/L180W/L218V/M285V/M309V/M331V/P208H/Q277E/Q291P/S123Y/S297R/S48A/T329A/T363A/V319A/V328M); experiment: Competitive peptide binding assay, CIR-C1202; details: HMy2.CIR-C1202 cells, reference Cy5-[…], class from inhibition at 5 and 15 μM, flow cytometry MFI; read-out: Binding affinity with HLA-C1202
Experimental: as §1

HLA-C1402 = HLA-C1402 (Homo sapiens, UniProt P10321, A176E/A330V/A35S/A97T/C350S/D114A/D33S/L171W/L180R/L218V/M285V/M309V/M331V/P208H/Q277E/Q291P/R121W/R243W/S123F/S297R/S48A/T329A/T363A/V319A); experiment: Competitive peptide binding assay, CIR-C1402; details: HMy2.CIR-C1402 cells, reference Cy5-[…], class from inhibition at 5 and 15 μM, flow cytometry MFI; read-out: Binding affinity with HLA-C1402
Experimental: as §1

| Structure (SMILES) | IC50 (HLA-C0303) | IC50 (HLA-C0302) | IC50 (HLA-C0801) | IC50 (HLA-C0102) | IC50 (HLA-C0602) | IC50 (HLA-C0701) | IC50 (HLA-C0304) | IC50 (HLA-C0702) | IC50 (HLA-C1502) | IC50 (HLA-C0401) | IC50 (HLA-C1202) | IC50 (HLA-C1402) |
| --- | --- | --- | --- | --- | --- | --- | --- | --- | --- | --- | --- | --- |
| CC[C@H](C)[C@H](NC(=O)[C@H](C)NC(=O)[C@H](C)NC(=O)[C@H](CC(N)=O)NC(=O)CNC(=O)[C@H](CC(=O)O)NC(=O)[C@H](CCC(N)=O)NC(=O)[C@H](C)NC(=O)[C@@H](N)Cc1ccccc1)C(=O)O [Epitope M22] (H-FAQDGNAAI-OH; N-terminus and C-terminus assumed) | > 15 µM | < 5 µM | < 5 µM | > 15 µM | > 15 µM | > 15 µM | 5 to 15 µM |  |  |  |  |  |
| CC[C@H](C)[C@H](N)C(=O)N[C@@H](C)C(=O)N[C@@H](CCSC)C(=O)N[C@@H](C)C(=O)N[C@@H](CS)C(=O)N[C@@H](CC(C)C)C(=O)N[C@H](C(=O)NCC(=O)N[C@@H](CC(C)C)C(=O)O)C(C)C [Epitope M44] (H-IAMACLVGL-OH; N-terminus and C-terminus assumed) | > 15 µM | < 5 µM | > 15 µM | < 5 µM | > 15 µM | > 15 µM | > 15 µM | > 15 µM |  |  |  |  |
| C[C@H](NC(=O)[C@H](CO)NC(=O)[C@H](CO)NC(=O)[C@@H](N)Cc1ccc(O)cc1)C(=O)N[C@@H](CC(N)=O)C(=O)N[C@@H](CC(N)=O)C(=O)N[C@@H](CS)C(=O)N[C@H](C(=O)N[C@@H](Cc1ccccc1)C(=O)O)[C@@H](C)O [Epitope M64] (H-YSSANNCTF-OH; N-terminus and C-terminus assumed) | > 15 µM | 5 to 15 µM | > 15 µM | > 15 µM |  |  |  | > 15 µM | < 5 µM |  |  |  |
| CC(C)[C@H](NC(=O)[C@@H](N)Cc1ccccc1)C(=O)N[C@@H](CO)C(=O)N[C@@H](CC(N)=O)C(=O)NCC(=O)N[C@H](C(=O)N[C@@H](Cc1c[nH]cn1)C(=O)N[C@@H](Cc1c[nH]c2ccccc12)C(=O)N[C@@H](Cc1ccccc1)C(=O)O)[C@@H](C)O [Epitope M68] (H-FVSNGTHWF-OH; N-terminus and C-terminus assumed) |  |  | > 15 µM |  | > 15 µM | > 15 µM |  | > 15 µM | 5 to 15 µM |  |  |  |
| CSCC[C@H](NC(=O)[C@H](CO)NC(=O)[C@H](CCCNC(=N)N)NC(=O)[C@@H](NC(=O)[C@H](CCCNC(=N)N)NC(=O)[C@H](C)NC(=O)[C@@H](N)Cc1ccccc1)[C@@H](C)O)C(=O)N[C@@H](Cc1c[nH]c2ccccc12)C(=O)N[C@@H](CO)C(=O)N[C@@H](Cc1ccccc1)C(=O)O [Epitope M71] (H-FARTRSMWSF-OH; N-terminus and C-terminus assumed) |  | < 5 µM | > 15 µM |  | > 15 µM | 5 to 15 µM |  | 5 to 15 µM |  | > 15 µM |  |  |
| CC(C)C[C@H](NC(=O)[C@H](Cc1ccccc1)NC(=O)[C@@H](NC(=O)[C@@H](N)C(C)C)C(C)C)C(=O)N[C@@H](Cc1c[nH]cn1)C(=O)N[C@H](C(=O)N[C@H](C(=O)N[C@@H](Cc1ccc(O)cc1)C(=O)N[C@H](C(=O)O)C(C)C)[C@@H](C)O)C(C)C [Epitope M131] (H-VVFLHVTYV-OH; N-terminus and C-terminus assumed) |  | > 15 µM |  | 5 to 15 µM |  |  | 5 to 15 µM | > 15 µM |  |  | > 15 µM |  |
| CC(C)C[C@H](NC(=O)[C@H](CCC(=O)O)NC(=O)[C@H](Cc1ccccc1)NC(=O)[C@H](CO)NC(=O)[C@H](CC(C)C)NC(=O)[C@@H](NC(=O)[C@@H](NC(=O)[C@@H](NC(=O)[C@H](CCCNC(=N)N)NC(=O)[C@@H](N)Cc1ccc(O)cc1)C(C)C)C(C)C)C(C)C)C(=O)O [Epitope M156] (H-YRVVVLSFEL-OH; N-terminus and C-terminus assumed) | > 15 µM |  |  | 5 to 15 µM |  |  | > 15 µM |  |  |  | > 15 µM | > 15 µM |
